Consider 27 compounds from US20250163057A1, “DCN-1 MODULATING COMPOUNDS AND METHODS OF USE THEREOF” (Cellarity, Inc., priority 2023, published 2025).

SMILES strings stand for the structures. Where two headings read alike, the source gives them in different places.

Assay [1] concerns Cullin-3 (CUL3) neddylation. The assay can be described thus: AlphaLISA assay for Cullin-3 (CUL3) neddylation in TF 1 cells. The format is cell-based. The following applies: 3 hours treatment. In outline:
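TF 1 cells in unsupplemented IMDM treated with compound concentrations for 3 h, then lysed. CUL3 neddylation detected by AlphaLISA (biotinylated anti-NEDD8, anti-CUL3 acceptor beads overnight, streptavidin donor beads 1 h); normalized to vehicle (0%) and 1 μM DI-1548 (100%), IC50 from Hill fits.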

The target of assay [2] is DCN1 (DCUND1) protein PONY domain (Homo sapiens (Human), UniProt Q96GG9). Put plainly: TR-FRET assay, DCN1 binding with FAM-labeled probe. The method in brief: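 Tb-DCN1 PONY domain (E. coli, biotin/streptavidin-Tb); FAM-labelled non-covalent inhibitor probe; TritonX buffer, 200 mM NaCl; 5 nM DCN1 + 20 nM probe or 0.31 nM DCN1 + 900 nM total probe; 0.1% DMSO; TR-FRET read 1, 5, 24 hrs.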
Sequence of DCN1 (DCUND1) protein PONY domain (Q96GG9 60-248): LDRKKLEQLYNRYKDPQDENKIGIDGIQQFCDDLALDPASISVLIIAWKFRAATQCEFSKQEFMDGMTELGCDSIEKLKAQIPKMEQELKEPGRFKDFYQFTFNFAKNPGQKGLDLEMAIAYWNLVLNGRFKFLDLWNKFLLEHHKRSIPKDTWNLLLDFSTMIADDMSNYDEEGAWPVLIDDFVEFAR

Where [3] appears, read: 24 hr after treatment with compound, read-out: TR FRET IC50 24 hr.
Where [4] appears, read: TR FRET IC50 1 hr (nM), 1 hr after treatment with compound.
[5] abbreviates: read-out: TR FRET IC50 1 hr, 1 hr after treatment with compound.

For the compound `CCN1C(=O)[C@@H](NC(=O)c2cccc(C(F)(F)F)c2)[C@@H](c2ccc(F)cc2)c2c(C(F)CNC#N)nn(-c3ccccc3)c21` (mixture of isomers) [Compound I-679], the concentration for half-maximal inhibition (IC50) is not above 100 nM in assay [1] (Homo sapiens, TF-1, 3 h); not above 200 nM in assay [2] (setting [3]); 200 to 1000 nM in assay [2] (setting [4]).
Taken in the same sequence, the figures for `CCN1C(=O)[C@@H](NC(=O)c2cccc(C(F)(F)F)c2)[C@@H](C2CC2)c2c(C(=O)N(CC#N)CCCN(C)C)nn(C3CCOCC3)c21` [Compound I-683] were not above 100 nM, not above 200 nM and 200 to 1000 nM.
Taken in the same sequence, the figures for `CCN1C(=O)[C@@H](NC(=O)c2cccc(C(F)(F)F)c2)[C@@H](C2CC2)c2c(C(=O)N3CS(=O)(=O)C[C@@H]3C#N)nn(-c3ccccc3)c21` [Compound I-521] were not above 100 nM, not above 200 nM and 1000 to 3000 nM.
The corresponding values for `CCN1C(=O)[C@H](NC(=O)c2cccc(C(F)(F)F)c2)[C@H](C2CC2)c2c(C(=O)N(CC#N)C3CC3)nn(C3CCOCC3)c21` [Compound I-405] are more than 1000 nM, 1000 to 3000 nM and 1000 to 3000 nM.
Take `CCN1C(=O)[C@@H](NC(=O)c2cccc3c2CCCO3)[C@@H](C2CC2)c2c(C(=O)N3[C@H](C#N)C[C@H]4C[C@H]43)nn(C3CCOCC3)c21` [Compound I-633]: the IC50 in assay [1] (Homo sapiens, TF-1, 3 h) fell in the range of 100 to 1000 nM; in assay [2] (setting [3]), 200 to 1000 nM; in assay [2] (setting [4]) it was 1000 to 3000 nM.
Taken in the same sequence, the figures for `CCN1C(=O)[C@@H](NC(=O)c2cccc(C(F)(F)F)c2)[C@@H](c2ccc(F)cc2)c2c([C@@H](C)N(C#N)CCCN(C)C)nn(-c3ccccc3)c21` [Compound I-578, N-((4S,5S)-3-((R)-1-(N-(3-(dimethylamino)propyl)cyanamido)ethyl)-7-ethyl-4-(4-fluorophenyl)-6-oxo-1-phenyl-4,5,6,7-tetrahydro-1H-pyrazolo[3,4-b]pyridin-5-yl)-3-(trifluoromethyl)benzamide] were 100 to 1000 nM, 1000 to 3000 nM and 1000 to 3000 nM.
Taken in the same sequence, the figures for `CCCn1nc(C(=O)N(CC#N)C2CC2)c2c1N(CC)C(=O)[C@@H](NC(=O)c1cccc(C(F)(F)F)c1)[C@H]2C1CC1` [Compound I-427] were 100 to 1000 nM, 200 to 1000 nM and 1000 to 3000 nM.
As for `CCN1C(=O)[C@@H](NC(=O)c2cccn(C3CC3)c2=O)[C@@H](C2CC2)c2c(C(=O)N3[C@H](C#N)C[C@H]4C[C@H]43)nn(C3CCOCC3)c21` [Compound I-625], the IC50 in assay [1] is more than 1000 nM; in assay [2] (setting [3]), 1000 to 3000 nM; in assay [2] (setting [4]), 1000 to 3000 nM.
As to `CCN1C(=O)[C@@H](NC(=O)c2cccc(C(F)(F)F)c2)[C@@H](C2CC2)c2c(C(=O)N(C)[C@@H](C#N)CCN(C)C3COC3)nn(C3CCOCC3)c21` [Compound I-664], the IC50 in assay [1] (Homo sapiens, TF-1, 3 h) fell in the range of 100 to 1000 nM; in assay [2] (setting [3]), 200 to 1000 nM; in assay [2] (setting [4]), 200 to 1000 nM.
Turning to `CCN1C(=O)[C@@H](NC(=O)c2cccc(C(F)(F)F)c2)[C@@H](C2CC2)c2c(C(=O)N(C)[C@@H](C)C#N)nn(C3CCOCC3)c21` [Compound I-549, (4S,5S)—N—((S)-1-cyanoethyl)-4-cyclopropyl-7-ethyl-N-methyl-6-oxo-1-(tetrahydro-2H-pyran-4-yl)-5-(3-(trifluoromethyl)benzamido)-4,5,6,7-tetrahydro-1H-pyrazolo[3,4-b]pyridine-3-carboxamide], the half-maximal inhibitory concentration (IC50) in assay [1] (Homo sapiens, TF-1, 3 h) was not above 100 nM; in assay [2] (setting [3]), not above 200 nM; in assay [2] (setting [4]), 200 to 1000 nM.
Taken in the same sequence, the figures for `CCCn1nc(C(=O)N(CC#N)C2CC2)c2c1N(CC)C(=O)[C@H](NC(=O)c1cccc(C(F)(F)F)c1)[C@@H]2c1ccc(F)cc1` [Compound I-572] were more than 1000 nM, 1000 to 3000 nM and 1000 to 3000 nM.
For `CCN1C(=O)[C@@H](NC(=O)c2cccc(C(F)(F)F)c2)[C@@H](c2ccc(F)cc2)c2c([C@@H](C)N(C#N)C(=O)OCCN3CCN(C)CC3)nn(-c3ccccc3)c21` [Compound I-536], the IC50 was 100 to 1000 nM in assay [1] (Homo sapiens, TF-1, 3 h); not above 200 nM in assay [2] (setting [3]); not above 200 nM in assay [2] (setting [5]).
On to `COCCN1C(=O)[C@@H](NC(=O)c2cccc(C(F)(F)F)c2)[C@@H](C2CC2)c2c(C(=O)N3[C@H](C#N)C[C@H]4C[C@H]43)nn(C3CCOCC3)c21` [Compound I-474], for which the IC50 fell in the range of 100 to 1000 nM in assay [1] (Homo sapiens, TF-1, 3 h); 200 to 1000 nM in assay [2] (setting [3]); 1000 to 3000 nM in assay [2] (setting [4]).
Turning to `CCN1C(=O)[C@@H](NC(=O)c2cccc(C(F)(F)F)c2F)[C@@H](C2CC2)c2c(C(=O)N3[C@H](C#N)C[C@H]4C[C@H]43)nn(C3CCOCC3)c21` [Compound I-514], the 50% inhibitory concentration (IC50) in assay [1] (Homo sapiens) was not above 100 nM; in assay [2] (setting [3]), not above 200 nM; in assay [2] (setting [5]), not above 200 nM.
Regarding `CCN1C(=O)[C@@H](NC(=O)c2cccc(C(F)(F)F)c2)[C@@H](c2ccc(F)cc2)c2c([C@@H](C)NC(N)=O)nn(-c3ccccc3)c21` [Compound I-499, N-((4S,5S)-7-ethyl-4-(4-fluorophenyl)-6-oxo-1-phenyl-3-((R)-1-ureidoethyl)-4,5,6,7-tetrahydro-1H-pyrazolo[3,4-b]pyridin-5-yl)-3-(trifluoromethyl)benzamide], the IC50 in assay [1] (Homo sapiens, TF-1, 3 h) fell in the range of 100 to 1000 nM; in assay [2] (setting [3]), 1000 to 3000 nM; in assay [2] (setting [4]) it was 1000 to 3000 nM.
For `CCCn1nc(C(=O)N2CCC[C@H]2C#N)c2c1N(CC)C(=O)[C@@H](NC(=O)c1cccc(C(F)(F)F)c1)[C@H]2c1ccc(F)cc1` [Compound I-428], the half-maximal inhibitory concentration (IC50) was not above 100 nM in assay [1] (Homo sapiens, TF-1, 3 h); not above 200 nM in assay [2] (setting [3]); 200 to 1000 nM in assay [2] (setting [4]).
Turning to `CCN1C(=O)[C@@H](NC(=O)c2csc(C)c2)[C@@H](C2CC2)c2c(C(=O)N3[C@H](C#N)C[C@H]4C[C@H]43)nn(C3CCOCC3)c21` [Compound I-481], the half-maximal inhibitory concentration (IC50) in assay [1] (Homo sapiens) is not above 100 nM; in assay [2] (setting [3]), not above 200 nM; in assay [2] (setting [5]), not above 200 nM.
With `CCN1C(=O)[C@@H](NC(=O)c2cccc(C(F)(F)F)c2)[C@@H](c2ccc(F)cc2)c2c(C(=O)N3[C@H](C#N)C[C@H]4C[C@H]43)nn([C@@H]3CCOC3)c21` (single isomer, unassigned) [Compound I-482], the IC50 in assay [1] is not above 100 nM; in assay [2] (setting [3]), not above 200 nM; in assay [2] (setting [5]), not above 200 nM.
As for `CCN1C(=O)[C@@H](NC(=O)c2cccc(C(F)(F)F)c2)[C@@H](C2CC2)c2c(C(=O)N(CC#N)C3CC3)nn(C3CC3)c21` [Compound I-702], the IC50 is 100 to 1000 nM in assay [1] (Homo sapiens, TF-1, 3 h); 200 to 1000 nM in assay [2] (setting [3]); 1000 to 3000 nM in assay [2] (setting [4]).
Take `CCN1C(=O)[C@@H](NC(=O)c2cccc(C(F)(F)F)c2)[C@@H](c2ccc(F)cc2)c2c(CN(C#N)CCCN3CCOCC3)nn(-c3ccccc3)c21` [Compound I-496]: the half-maximal inhibitory concentration (IC50) was not above 100 nM in assay [1] (Homo sapiens, TF-1, 3 h); not above 200 nM in assay [2] (setting [3]); not above 200 nM in assay [2] (setting [5]).
Consider `CCN1C(=O)[C@@H](NC(=O)c2nccc(C(F)(F)F)n2)[C@H](c2ccc(F)cc2)c2c(CC(=O)N[C@H](C)C#N)nn(-c3ccccc3)c21` (single isomer, unassigned) [Compound I-607], for which the IC50 in assay [1] (Homo sapiens, TF-1, 3 h) was more than 1000 nM; in assay [2] (setting [3]), 1000 to 3000 nM; in assay [2] (setting [4]) it was 200 to 1000 nM.
`CCN1C(=O)[C@@H](NC(=O)c2cccc(C(F)(F)F)c2)[C@@H](C2CC2)c2c(C(=O)N3CCS(=O)(=O)C[C@H]3C#N)nn(-c3ccccc3)c21` [Compound I-659, N-((4S,5S)-3-((R)-3-cyano-1,1-dioxidothiomorpholine-4-carbonyl)-4-cyclopropyl-7-ethyl-6-oxo-1-phenyl-4,5,6,7-tetrahydro-1H-pyrazolo[3,4-b]pyridin-5-yl)-3-(trifluoromethyl)benzamide]: the IC50 in assay [1] (Homo sapiens, TF-1, 3 h) is not above 100 nM; in assay [2] (setting [3]) it was not above 200 nM; in assay [2] (setting [5]) it was not above 200 nM.
For `CCN1C(=O)[C@H](NC(=O)c2cccc(C(F)(F)F)c2)[C@H](C2CC2)c2c(C(=O)N3CCC[C@H]3C#N)nn(C3CCOCC3)c21` [Compound I-666], the concentration for half-maximal inhibition (IC50) was more than 1000 nM in assay [1] (Homo sapiens, TF-1, 3 h); 1000 to 3000 nM in assay [2] (setting [3]); 1000 to 3000 nM in assay [2] (setting [4]).
`CCN1C(=O)[C@@H](NC(=O)[C@H]2C[C@@H]3CCCC[C@@H]3N2)[C@@H](C2CC2)c2c(C(=O)N3[C@H](C#N)C[C@H]4C[C@H]43)nn(C3CCOCC3)c21` [Compound I-566]: the half-inhibitory concentration (IC50) in assay [1] (Homo sapiens, TF-1, 3 h) is more than 1000 nM; in assay [2] (setting [3]) it was 1000 to 3000 nM; in assay [2] (setting [4]) it was 1000 to 3000 nM.
As for `CCN1C(=O)[C@@H](NC(=O)c2cccc(C(F)(F)F)c2)[C@@H](C2CC2)c2c(C(=O)N3CCNC[C@@H]3C#N)nn(-c3ccccc3)c21` (single isomer, unassigned) [Compound I-518], the half-maximal inhibitory concentration (IC50) is not above 100 nM in assay [1] (Homo sapiens, TF-1, 3 h); not above 200 nM in assay [2] (setting [3]); 200 to 1000 nM in assay [2] (setting [4]).
On to `CCN1C(=O)[C@@H](NC(=O)c2cccc(C(F)(F)F)c2)[C@@H](C2CC2)c2c(C(=O)N3[C@H](C#N)C[C@@H]4C[C@@H]43)nn(C3CCOCC3)c21` [Compound I-441], for which the concentration for half-maximal inhibition (IC50) in assay [1] (Homo sapiens, TF-1, 3 h) is more than 1000 nM; in assay [2] (setting [3]), 200 to 1000 nM; in assay [2] (setting [4]) it was 1000 to 3000 nM.
The corresponding values for `CCN1C(=O)[C@@H](NC(=O)c2cccc(C(F)(F)F)c2)[C@@H](c2ccc(F)cc2)c2c(CN3C(=O)CC[C@H]3C#N)nn(-c3ccccc3)c21` [Compound I-622, N-((4S,5S)-3-(((S)-2-cyano-5-oxopyrrolidin-1-yl)methyl)-7-ethyl-4-(4-fluorophenyl)-6-oxo-1-phenyl-4,5,6,7-tetrahydro-1H-pyrazolo[3,4-b]pyridin-5-yl)-3-(trifluoromethyl)benzamide] are more than 1000 nM, 1000 to 3000 nM and 1000 to 3000 nM.
